What was measured:
[1] = molecular target: Chymotrypsinogen A (Bos taurus) (UniProt P00766); experiment: Compound was evaluated for inhibitory activity against alpha- chymotrypsin
[2] = molecular target: T1, Chymotrypsin-like elastase family member 2A (Sus scrofa) (UniProt P08419); experiment: Compound was evaluated for inhibitory activity against porcine pancreatic elastase; No inactivation
T1 sequence (whole entry): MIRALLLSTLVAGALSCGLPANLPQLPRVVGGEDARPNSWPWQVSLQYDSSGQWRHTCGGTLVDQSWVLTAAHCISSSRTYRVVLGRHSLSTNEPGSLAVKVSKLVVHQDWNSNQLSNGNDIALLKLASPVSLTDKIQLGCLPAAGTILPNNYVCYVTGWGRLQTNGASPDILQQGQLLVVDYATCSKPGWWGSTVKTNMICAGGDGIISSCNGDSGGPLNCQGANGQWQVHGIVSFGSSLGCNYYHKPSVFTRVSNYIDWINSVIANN

[3] = molecular target: T1, Chymotrypsin-like elastase family member 2A (Sus scrofa); experiment: Compound was evaluated for inhibitory activity against porcine pancreatic elastase
[4] = molecular target: Chymotrypsinogen A (Bos taurus) (UniProt P00766); experiment: Compound was evaluated for its inhibitory activity against alpha- chymotrypsin

I [1] | K obs / 1 [1] | K obs / 1 [2] | I [3] | K obs / 1 [3] | K obs / 1 [4] | Structure (SMILES)
2.31 mM | 0.33 M⁻¹ s⁻¹ | – | – | – | – | CC(=O)C(Cc1ccccc1)OS(C)(=O)=O (configuration not stated)
0.096 mM | 10.5 M⁻¹ s⁻¹ | No inhibition | 0.103 mM | – | – | CC(=O)C(Cc1ccccc1)OS(=O)(=O)c1ccc(C)cc1 (configuration not stated)
3.28 mM | 0.01 M⁻¹ s⁻¹ | – | 2.01 mM | 0.19 M⁻¹ s⁻¹ | – | CC(=O)C(C)OS(=O)(=O)c1ccccc1 (configuration not stated)
0.057 mM | – | – | – | – | 7.7 M⁻¹ s⁻¹ | Cc1ccc(S(=O)(=O)N[C@@H](Cc2ccccc2)C(=O)CCl)cc1
